ChEMBL document CHEMBL1129835, “Selective cytotoxicity of certain 9-substituted ellipticines for leukemia cells in a variety of leukemia cell cultures” (1997)

Legend:
Type in all cases: functional
Details in all cases: Homo sapiens
CAKI-1 = assay: The compound was evaluated for cytotoxicity against CAKI-1 renal cancer cell line
HCT-116 = assay: The compound was evaluated for cytotoxicity against HCT116 colon cancer cell line
IGROV-1 = assay: The compound was evaluated for cytotoxicity against IGROV1 ovarian cancer cell line
MDA-N = assay: The compound was evaluated for cytotoxicity against MDA-N breast cancer cell line
MOLT-4 = assay: The compound was evaluated for cytotoxicity against MOLT-4 leukemia cell line
NCI-H322M = assay: The compound was evaluated for cytotoxicity against NCI-H322M non-small cell lung cancer cell line
PC-3 = assay: The compound was evaluated for cytotoxicity against PC-3 prostate cancer cell line
U-251 = assay: The compound was evaluated for cytotoxicity against U251 CNS cancer cell line
LOX IMVI = assay: The compound was evaluated for cytotoxicity against LOX-IMVI melanoma cell line

Cc1c2ccncc2c(C)c2c1[nH]c1ccc(CNCCN(C)C)cc12
GI50 (CAKI-1): 260 nM
GI50 (HCT-116): 170 nM
GI50 (IGROV-1): 150 nM
GI50 (MDA-N): 280 nM
GI50 (MOLT-4): 100 nM
GI50 (NCI-H322M): 250 nM
GI50 (PC-3): 380 nM
GI50 (U-251): 280 nM
GI50 (LOX IMVI): 160 nM
